Test [1] addresses T1, human TLR8 (Homo sapiens, UniProt Q9NR97).
T1 construct: host or cells: HEK-Blue cells
T1 sequence (Q9NR97 27-1041): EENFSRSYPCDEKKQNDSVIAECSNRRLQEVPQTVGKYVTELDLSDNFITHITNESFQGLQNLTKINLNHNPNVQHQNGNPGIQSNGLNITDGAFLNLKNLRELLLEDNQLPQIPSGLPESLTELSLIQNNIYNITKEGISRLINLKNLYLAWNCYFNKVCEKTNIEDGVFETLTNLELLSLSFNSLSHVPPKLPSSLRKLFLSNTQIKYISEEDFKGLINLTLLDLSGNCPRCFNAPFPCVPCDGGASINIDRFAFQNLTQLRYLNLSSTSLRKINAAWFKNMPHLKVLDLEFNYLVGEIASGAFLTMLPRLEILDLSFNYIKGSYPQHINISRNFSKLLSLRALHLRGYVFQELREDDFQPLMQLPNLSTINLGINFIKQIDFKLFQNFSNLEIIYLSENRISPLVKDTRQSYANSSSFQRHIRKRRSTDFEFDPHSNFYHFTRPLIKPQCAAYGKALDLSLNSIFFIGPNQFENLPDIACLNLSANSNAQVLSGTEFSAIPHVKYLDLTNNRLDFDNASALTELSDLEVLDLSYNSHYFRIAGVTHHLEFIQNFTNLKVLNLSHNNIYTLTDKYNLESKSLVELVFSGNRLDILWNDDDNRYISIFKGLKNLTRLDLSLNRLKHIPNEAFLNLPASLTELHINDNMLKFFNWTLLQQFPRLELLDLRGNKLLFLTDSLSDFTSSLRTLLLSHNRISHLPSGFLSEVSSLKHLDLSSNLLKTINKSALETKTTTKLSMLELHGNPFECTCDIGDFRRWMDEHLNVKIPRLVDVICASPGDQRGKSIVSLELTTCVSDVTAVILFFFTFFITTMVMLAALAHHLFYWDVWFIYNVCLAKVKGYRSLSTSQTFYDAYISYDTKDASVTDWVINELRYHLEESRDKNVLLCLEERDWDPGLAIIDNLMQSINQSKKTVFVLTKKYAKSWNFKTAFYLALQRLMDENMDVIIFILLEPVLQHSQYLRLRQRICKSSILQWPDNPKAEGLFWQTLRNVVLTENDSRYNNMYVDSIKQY
In words: TLR8 inhibition reporter assay (HEK-Blue SEAP). Type of test: cell-based. The settings on record: HEK-Blue cells overexpressing human TLR8, R848 15.9 μM, 22 hour incubation. An outline of the steps: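 Agonists used: gardiquimod 7.5 μM (TLR7), R848 15.9 μM (TLR8), ODN2006 5 nM (TLR9), added after 30 min room-temperature compound pre-treatment (0.05 nM–50 μM) of receptor-overexpressing HEK-Blue cells. SEAP reporter (NF-κB/AP-1 driven) read after 22 h at 37 °C; inhibition scaled between agonist+DMSO and reference-inhibitor wells.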

Test [2] deals with T2, human TLR7 (Homo sapiens, UniProt Q9NYK1).
T2 construct: host or cells: HEK-Blue cells
T2 sequence (Q9NYK1 27-1049): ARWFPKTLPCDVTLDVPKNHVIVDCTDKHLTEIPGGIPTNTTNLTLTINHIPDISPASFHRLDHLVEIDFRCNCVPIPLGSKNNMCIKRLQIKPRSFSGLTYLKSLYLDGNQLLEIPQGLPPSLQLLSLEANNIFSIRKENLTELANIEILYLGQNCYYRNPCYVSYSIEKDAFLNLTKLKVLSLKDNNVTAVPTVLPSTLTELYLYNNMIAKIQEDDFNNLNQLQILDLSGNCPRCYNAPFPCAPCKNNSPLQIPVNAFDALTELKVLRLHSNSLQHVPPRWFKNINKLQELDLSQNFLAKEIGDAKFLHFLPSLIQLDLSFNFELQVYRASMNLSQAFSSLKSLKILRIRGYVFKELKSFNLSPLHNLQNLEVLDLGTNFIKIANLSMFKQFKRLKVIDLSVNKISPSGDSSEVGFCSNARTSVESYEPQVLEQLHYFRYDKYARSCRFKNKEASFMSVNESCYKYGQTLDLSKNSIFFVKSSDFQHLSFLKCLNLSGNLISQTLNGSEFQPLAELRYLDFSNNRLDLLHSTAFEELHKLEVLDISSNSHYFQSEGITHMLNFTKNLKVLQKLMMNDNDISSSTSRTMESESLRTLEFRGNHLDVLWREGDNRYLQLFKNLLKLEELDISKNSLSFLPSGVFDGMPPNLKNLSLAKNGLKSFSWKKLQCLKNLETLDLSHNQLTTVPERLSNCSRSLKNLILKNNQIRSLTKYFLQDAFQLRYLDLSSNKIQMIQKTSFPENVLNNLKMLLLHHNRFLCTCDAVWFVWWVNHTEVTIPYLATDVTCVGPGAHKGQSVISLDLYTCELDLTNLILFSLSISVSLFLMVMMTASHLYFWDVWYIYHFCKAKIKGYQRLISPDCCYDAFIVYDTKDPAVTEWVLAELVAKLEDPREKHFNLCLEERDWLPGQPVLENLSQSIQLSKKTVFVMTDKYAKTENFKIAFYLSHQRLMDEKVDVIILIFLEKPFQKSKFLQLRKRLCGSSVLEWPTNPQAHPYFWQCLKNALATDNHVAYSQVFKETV
In words: TLR7 inhibition reporter assay (HEK-Blue SEAP). Type of test: cell-based. The settings on record: HEK-Blue cells overexpressing human TLR7, gardiquimod 7.5 μM, 22 hour incubation. The essentials: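 HEK-Blue reporter cells (15,000/well TLR7, 20,000 TLR8) exposed to compound over 0.05 nM–50 μM, agonist-stimulated (R848 for TLR8, gardiquimod for TLR7), 22 h at 37 °C, 5% CO2. SEAP read with HEK-Blue Detection; % inhibition relative to agonist-plus-DMSO and known-inhibitor controls.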

Structures are written as SMILES.

Take `CCc1cc2c(cc1-c1cc(OC)c3ncnn3c1)[nH]c(=O)n2[C@@H]1CCCN(CC2CC2)C1` [Example 182, (R)-1-(1-(cyclopropylmethyl)piperidin-3-yl)-6-ethyl-5-(8-methoxy-[1,2,4]triazolo[1,5-a]pyridin-6-yl)-1,3-dihydro-2H-benzo[d]imidazol-2-one]: the IC50 in test [1] was determined as 2.31 nM; in test [2] it was 1.93 nM.
Turning to `COc1cc(-c2cc3[nH]c(=O)n([C@H]4CC[C@@H](N(C)C)CC4)c3cc2C(C)C)cn2ncnc12` [Example 191, 1-((1s,4s)-4-(dimethylamino)cyclohexyl)-6-isopropyl-5-(8-methoxy-[1,2,4]triazolo[1,5-a]pyridin-6-yl)-1,3-dihydro-2H-benzo[d]imidazol-2-one], the IC50 is 0.58 nM in test [1] and 1.49 nM in test [2].
Take `Cc1c(-c2cc3[nH]c(=O)n([C@H]4CC[C@@H](NCC5CCOCC5)CC4)c3cc2C(C)C)cn2ncnc2c1C` [Example 200, 5-(7,8-dimethyl-[1,2,4]triazolo[1,5-a]pyridin-6-yl)-6-isopropyl-1-((1s,4s)-4-(((tetrahydro-2H-pyran-4-yl)methyl)amino)cyclohexyl)-1,3-dihydro-2H-benzo[d]imidazol-2-one]: the concentration for half-maximal inhibition (IC50) in test [1] turned out to be 0.13 nM; in test [2], 9.02 nM.
The like results for `CCc1cc2c(cc1-c1cc(OC)c3ncnn3c1)[nH]c(=O)n2[C@H]1CC[C@@H](NC2COC2)CC1` [Example 170, 6-ethyl-5-(8-methoxy-[1,2,4]triazolo[1,5-a]pyridin-6-yl)-1-((1s,4s)-4-(oxetan-3-ylamino)cyclohexyl)-1,3-dihydro-2H-benzo[d]imidazol-2-one] were, in that order, 1.27 nM and 6.25 nM.
With `COc1cc(-c2cc3[nH]c(=O)n(C4CCN(CCS(C)(=O)=O)CC4)c3cc2C(C)C)cn2ncnc12` [Example 224, 6-isopropyl-5-(8-methoxy-[1,2,4]triazolo[1,5-a]pyridin-6-yl)-1-(1-(2-(methylsulfonyl)ethyl)piperidin-4-yl)-1,3-dihydro-2H-benzo[d]imidazol-2-one], the results for the IC50 in test [1] and in test [2] were 25.5 nM and 82.4 nM, respectively.
For `CCc1cc2c(cc1-c1cc(OC)c3ncnn3c1)[nH]c(=O)n2[C@@H]1CCCN(CC2CCOCC2)C1` [Example 175, (R)-6-ethyl-5-(8-methoxy-[1,2,4]triazolo[1,5-a]pyridin-6-yl)-1-(1-((tetrahydro-2H-pyran-4-yl)methyl)piperidin-3-yl)-1,3-dihydro-2H-benzo[d]imidazol-2-one] the same measures were 2.23 nM and 0.83 nM.
The like results for `COc1cc(-c2cc3[nH]c(=O)n([C@@H]4CCCN(CC5CCCC5)C4)c3cc2C(C)C)cn2ncnc12` [Example 211, (R)-1-(1-(cyclopentylmethyl)piperidin-3-yl)-6-isopropyl-5-(8-methoxy-[1,2,4]triazolo[1,5-a]pyridin-6-yl)-1,3-dihydro-2H-benzo[d]imidazol-2-one] were, in that order, 0.05 nM and 0.05 nM.
The like results for `COc1cc(-c2cc3[nH]c(=O)n([C@H]4CC[C@H](NC5CCN(C(C)C)CC5)CC4)c3cc2C(C)C)cn2ncnc12` [Example 207, 6-isopropyl-1-((1r,4r)-4-((1-isopropylpiperidin-4-yl)amino)cyclohexyl)-5-(8-methoxy-[1,2,4]triazolo[1,5-a]pyridin-6-yl)-1,3-dihydro-2H-benzo[d]imidazol-2-one] were, in that order, 4.15 nM and 23.9 nM.
As for `COCCN1CCC[C@@H](n2c(=O)[nH]c3cc(-c4cc(OC)c5ncnn5c4)c(C(C)C)cc32)C1` (single isomer, unassigned) [Example 225], the figures for the IC50 in test [1] and in test [2] were 3.37 nM and 7.96 nM, respectively.
Consider `COc1cc(-c2cc3[nH]c(=O)n(C4CCC(N5CCNC(=O)C5)CC4)c3cc2C(C)C)cn2ncnc12` (single isomer, unassigned) [Example 234, 6-isopropyl-5-(8-methoxy-[1,2,4]triazolo[1,5-a]pyridin-6-yl)-1-(4-(3-oxopiperazin-1-yl)cyclohexyl)-1,3-dihydro-2H-benzo[d]imidazol-2-one], for which the IC50 in test [1] was 10.5 nM; in test [2] it was 42.7 nM.
For `COc1cc(-c2cc3[nH]c(=O)n(C4CCC(N5CCCC5)CC4)c3cc2C(C)C)cn2ncnc12` (stereo not drawn) [Example 231, 6-isopropyl-5-(8-methoxy-[1,2,4]triazolo[1,5-a]pyridin-6-yl)-1-(4-(pyrrolidin-1-yl)cyclohexyl)-1,3-dihydro-2H-benzo[d]imidazol-2-one] the same measures were 0.81 nM and 1.68 nM.
Take `COc1cc(-c2cc3[nH]c(=O)n([C@H]4CC[C@H](NC5COC5)CC4)c3cc2C(C)C)cn2ncnc12` [Example 201, 6-isopropyl-5-(8-methoxy-[1,2,4]triazolo[1,5-a]pyridin-6-yl)-1-((1r,4r)-4-(oxetan-3-ylamino)cyclohexyl)-1,3-dihydro-2H-benzo[d]imidazol-2-one]: the values for the IC50 in test [1] and in test [2] were 1.54 nM and 2.07 nM, respectively.
The like results for `COc1cc(-c2cc3[nH]c(=O)n(C4CCC(N5CC6(CCOCC6)C5)CC4)c3cc2C(C)C)cn2ncnc12` (single isomer, unassigned) [Example 235, 1-(4-(7-oxa-2-azaspiro[3.5]nonan-2-yl)cyclohexyl)-6-isopropyl-5-(8-methoxy-[1,2,4]triazolo[1,5-a]pyridin-6-yl)-1,3-dihydro-2H-benzo[d]imidazol-2-one] were, in that order, 0.39 nM and 1.52 nM.
The like results for `COc1cc(-c2cc3[nH]c(=O)n(C4CCC(N5CC(O)(C(F)(F)F)C5)CC4)c3cc2C(C)C)cn2ncnc12` (single isomer, unassigned) [Example 241, 1-(4-(3-hydroxy-3-(trifluoromethyl)azetidin-1-yl)cyclohexyl)-6-isopropyl-5-(8-methoxy-[1,2,4]triazolo[1,5-a]pyridin-6-yl)-1,3-dihydro-2H-benzo[d]imidazol-2-one] were, in that order, 0.49 nM and 3.01 nM.
For the compound `CCc1cc2c(cc1-c1cc(OC)c3ncnn3c1)[nH]c(=O)n2[C@@H]1CCCN(CC)C1` [Example 171, (R)-6-ethyl-1-(1-ethylpiperidin-3-yl)-5-(8-methoxy-[1,2,4]triazolo[1,5-a]pyridin-6-yl)-1,3-dihydro-2H-benzo[d]imidazol-2-one], the IC50 in test [1] turned out to be 3.03 nM; in test [2], 4.56 nM.

The record behind these values is US12187723B2 (BRISTOL-MYERS SQUIBB COMPANY, priority 2019, dated 2025).
